Patent US9877962B2, “Piperazinyl derivatives for the treatment of cancer” (priority 2011, dated 2018)
In brackets after ≈: the same amount, converted by molar mass. Where two headings read alike, the source gives them in different places.

What was measured:
[1] = Determination of aqueous solubility; type: physicochemical; settings: aqueous medium, aqueous buffer, thermodynamic from solid, pH 7.4, agitation 24 h, 20° C., HPLC
Experimental: The aqueous solubility of each compound was measured at pH 7.4. It was measured using HPLC on the supernatants obtained by centrifugation after saturation of the media with excess compound after an agitation time of 24 h and at a temperature of 20° C. The preparation and treatment of the samples was robotized.

[2] = Pharmacokinetic parameters in mice; type: in vivo, balb/c mice; settings: for AUC(0-inf) / AUC(0-t) / Cmax / half-life: mouse, balb/c mice, intravenous route, 10 mg/kg, plasma; for half-life: read-out: t½ (converted)
Experimental: The pharmacokinetic behaviour of compounds is a pre-requisite for reasonable use thereof in in vivo experimentation. The compounds were given in DMSO solution via intravenous route (IV) or oral route (PO) to balb/c mice. Blood samples were taken at times ranging from 5 minutes to 6 hours, the plasmas were collected and the concentration of the compounds in each sample was assayed by LC/MS/MS. The data obtained allowed the plotting of time-concentration curves and determination of fundamental parameters such as plasma half-life of the compound (T½), area under curve at a given time (AUCt) and the maximum concentration obtained (Cmax).

[3] = test system: HL-60; test: Cytotoxicity test (ViaLight Plus cell proliferation) on HL-60; type: cell-based, human; settings: 72 hours' incubation, cell viability vs 0.5% DMSO control; for IC50: HL-60, 72 h, read-out: EC50 HL-60
Description: (§1) The effects of the compounds of the invention on the proliferation of cancer cells were studied on different human cancer cell lines of different tissue origin (MCF-7: breast cancer, MCF-7/adr adriamycin-resistant breast cancer, HL-60: acute promyelocytic leukaemia, HL-60/R10: doxorubicin-resistant acute promyelocytic leukaemia, HT29: colon adenocarcinoma, Mia Paca2: pancreatic tumour, Panc-1: pancreatic exocrine tumour, SK-OV-3: cisplatin- and adriamycin resistant ovarian cancer). The cancer cells used for this study were incubated at 37° C. in the presence of one of the compounds of the invention added to the culture medium at different concentrations.
(§2) The cancer cell lines were obtained from ATCC (American Type Culture Collection) for MCF-7, from Hôpital de la Pitié Salpetrière for MCF-7/adr and from Oncodesign (Dijon, France) for HL-60, HL-60/R10, HT29, MiaPaCa2, Panc-1 and SK-OV-3. They were cultured in RPMI 1640 medium containing 2 mM L-Glutamine supplemented with 10% foetal calf serum (Lonza; Verviers, Belgium). All the cell lines were held in culture at 37° C. in a humid atmosphere containing 5% CO2. Cell proliferation was assessed using the ViaLight® Plus Assay Kit (Lonza; Verviers, Belgium) following the manufacturer's instructions. The cells were seeded in 96-well culture plates compatible with luminescence read-off (white plates with transparent bottom) in a proportion of 5 000 to 10 000 cells per well in 100 μl of culture medium. After a pre-incubation time of 24 hours at 37° C., the compounds of the invention dissolved in dimethylsulfoxide (DMSO) were individually added to each well in a proportion of 0.5 μl per well. After 72 hours' incubation at 37° C. in a humid atmosphere containing 5% CO2, 50 μl of lysis buffer were added to each well and 15 minutes later 100 μl of ATP measuring agent were added. The plates were read under a luminometer to evaluate cell viability. The data obtained was processed by computer to obtain the EC50 value i.e. the concentration value of each of the compounds which induces 50% cell viability compared with a control value (0.5% DMSO alone).

[4] = test system: HL-60/R10; test: Cytotoxicity test (ViaLight Plus cell proliferation) on HL-60/R10; type: cell-based, human; settings: doxorubicin-resistant line, 72 hours' incubation, cell viability vs 0.5% DMSO control, read-out: EC50 HL60/R10; for IC50: HL-60, 72 h
Description: as §1, §2

[5] = test system: MCF-7/adr; test: Cytotoxicity test (ViaLight Plus cell proliferation) on MCF-7/adr; type: cell-based, human; settings: adriamycin-resistant line, 72 hours' incubation, cell viability vs 0.5% DMSO control; for IC50: Homo sapiens, NCI/ADR-RES, 72 h, read-out: EC50 MCF-7/adr
Description: as §1, §2

[6] = test system: Mia PaCa2; test: Cytotoxicity test (ViaLight Plus cell proliferation) on Mia PaCa2; type: cell-based, human; settings: 72 hours' incubation, cell viability; for IC50: Homo sapiens, MIA PaCa-2, read-out: EC50 Mia PaCa2
Description: as §1, §2

[7] = test system: SK-OV-3; test: Cytotoxicity test (ViaLight Plus cell proliferation) on SK-OV-3; type: cell-based, human; settings: cisplatin- and adriamycin resistant line, 72 hours' incubation, cell viability; for IC50: Homo sapiens, SK-OV-3, read-out: EC50 SK-OV-3
Description: as §1, §2

[8] = test system: MCF-7; test: Cytotoxicity test (ViaLight Plus cell proliferation) on MCF-7; type: cell-based, human; settings: 72 hours' incubation, cell viability vs 0.5% DMSO control; for IC50: Homo sapiens, MCF7, 72 h, read-out: EC50 MCF-7
Description: as §1, §2

[9] = test system: HT29; test: Cytotoxicity test (ViaLight Plus cell proliferation) on HT29; type: cell-based, human; settings: 72 hours' incubation, cell viability; for IC50: Homo sapiens, HT-29, read-out: EC50 HT29
Description: as §1, §2

[10] = test system: Panc-1; test: Cytotoxicity test (ViaLight Plus cell proliferation) on Panc-1; type: cell-based, human; settings: 72 hours' incubation, cell viability; for IC50: Homo sapiens, PANC-1, read-out: EC50 Panc-1
Description: as §1, §2

CC(C)[C@H]1CN(C(=O)C(c2cccs2)N(C(=O)CCl)c2ccc(Oc3ccccc3)cc2)CCN1 (stereo partly drawn)
solubility at 24 h [1]: 50 µg/mL (≈ 97.6 µM)

Cc1cc(Oc2ccccc2)ccc1N(C(=O)CCl)C(C(=O)N1CC(C)NC(C)C1)c1cccs1.Cl (stereo not drawn)
AUC(0-inf) [2]: 3840 ng·h/mL | AUC(0-t) [2]: 3290 ng·h/mL | Cmax [2]: 3800 ng/mL | half-life [2]: 2.64 h

Cc1cc(Oc2ccccc2)ccc1N(C(=O)CCl)C(C(=O)N1CCN[C@@H](C)C1)c1cccs1.Cl (stereo partly drawn)
AUC(0-inf) [2]: 2060 ng·h/mL | AUC(0-t) [2]: 1680 ng·h/mL | Cmax [2]: 1420 ng/mL | half-life [2]: 2.47 h

CC(C)[C@H]1CN(C(=O)C(c2ccc(F)cc2)N(C(=O)CCl)c2ccc(Oc3ccccc3)cc2)CCN1 (single isomer, unassigned) [I-3 dia2]
EC50 [3]: 504 nM | EC50 [4]: 2 nM | EC50 [5]: 9 nM | IC50 [6]: 2 nM | IC50 [7]: 1 nM | EC50 [8]: 301 nM | IC50 [9]: 1 nM | IC50 [10]: 1 nM

Cc1cc(Oc2ccccc2)ccc1N(C(=O)CCl)C(C(=O)N1CCN[C@@H](C(C)C)C1)c1ccc(F)cc1 (single isomer, unassigned) [I-7 dia2]
EC50 [3]: 1940 nM | EC50 [4]: 26 nM | EC50 [5]: 98 nM | IC50 [6]: 13 nM | IC50 [7]: 7 nM | EC50 [8]: 1950 nM | IC50 [9]: 8 nM | IC50 [10]: 5 nM

Cc1cc(Oc2ccccc2)ccc1N(C(=O)CCl)C(C(=O)N1CCN[C@@H](C)C1)c1cccs1 (single isomer, unassigned) [I-43 dia2]
IC50 ([3]; Homo sapiens): 1890 nM | IC50 ([4]; Homo sapiens): 20 nM | IC50 [5]: 126 nM | IC50 [6]: 18 nM | IC50 [7]: 9 nM | IC50 [8]: 1420 nM | bioavailability in a mouse ([2]; IV 10 mg/kg or PO 30 mg/kg, FIG. 1): good bioavailability | IC50 [9]: 10 nM | IC50 [10]: 7 nM

Cc1cc(Oc2ccccc2)ccc1N(C(=O)CCl)C(C(=O)N1CCN[C@@H](C(C)C)C1)c1cccs1 (single isomer, unassigned; dia2) [I-46 dia2]
EC50 [3]: 449 nM | EC50 [4]: 10 nM | EC50 [5]: 58 nM | EC50 [6]: 10 nM | EC50 [7]: 6 nM | EC50 [8]: 1180 nM | EC50 [9]: 6 nM | EC50 [10]: 4 nM

CC(C)[C@H]1CN(C(=O)C(c2cccs2)N(C(=O)CCl)c2cccc(C(F)(F)F)c2)CCN1 (single isomer, unassigned; dia2) [I-50 dia2]
EC50 [3]: 841 nM | EC50 [4]: 8 nM | EC50 [6]: 2200 nM | EC50 [7]: 11 nM | EC50 [9]: 9 nM | EC50 [10]: 9 nM

C[C@H]1CN(C(=O)C(c2cccs2)N(C(=O)CCl)c2ccc(Oc3ccccc3)cc2)CCN1.Cl (stereo partly drawn) [Example I-58]
IC50 ([3]; Homo sapiens): 1060 nM | EC50 ([3]; Homo sapiens, HL-60): 1060 nM | IC50 ([4]; Homo sapiens): 11 nM | EC50 ([4]; Homo sapiens, HL-60): 11 nM | IC50 [5]: 88 nM | IC50 [8]: 870 nM | solubility at 24 h [1]: 203 µg/mL

C[C@@H]1CN(C(=O)C(c2cccs2)N(C(=O)CCl)c2ccc(Oc3ccccc3)cc2)CCN1.Cl (stereo partly drawn) [Example I-59]
IC50 ([3]; Homo sapiens): 956 nM | IC50 ([4]; Homo sapiens): 16 nM | EC50 ([4]; Homo sapiens, HL-60): 16 nM | IC50 [5]: 106 nM | IC50 [8]: 745 nM | solubility at 24 h [1]: 152 µg/mL

Cl.O=C(C(c1cccs1)N(C(=O)CCl)c1ccc(Oc2ccccc2)cc1)N1CCNCC1 (stereo not drawn) [reference compound]
IC50 ([3]; Homo sapiens): 579 nM | IC50 ([4]; Homo sapiens): 21 nM | solubility at 24 h [1]: 68 µg/mL

C[C@H]1CNCCN1C(=O)C(c1cccs1)N(C(=O)CCl)c1ccc(Oc2ccccc2)cc1.Cl (stereo partly drawn) [reference compound]
IC50 ([3]; Homo sapiens): 662 nM | IC50 ([4]; Homo sapiens): 65 nM | solubility at 24 h [1]: 105 µg/mL

Cc1cc(Oc2ccccc2)ccc1N(C(=O)CCl)C(C(=O)N1CCNCC1)c1cccs1.Cl (stereo not drawn) [reference compound]
AUC(0-inf) [2]: 1320 ng·h/mL | AUC(0-t) [2]: 1280 ng·h/mL | Cmax [2]: 1470 ng/mL | half-life [2]: 1.38 h

tert-butyl ester of 4-[-2-[(2-chloro-acetyl)-(4-phenoxy-phenyl)-amino]-2-(4-fluoro-phenyl)-acetyl]-(R)-2-isopropyl-piperazine-1-carboxylic acid [I-2 dia1]
EC50 [3]: 728 nM | EC50 [4]: 40 nM | EC50 [5]: 49 nM | EC50 [8]: 2090 nM
